In article PMC9562916, “Investigation of the Phenolic Component Bioavailability Using the In Vitro Digestion/Caco-2 Cell Model, as well as the Antioxidant Activity in Chinese Red Wine” (Foods, 2022):
Like-named read-outs stand apart in the source and are kept apart here. Marks after values point to notes of the source that are not given here.

Columns and labels:
Caco-2 cell monolayer = assay: Caco-2 transepithelial transport assay of digested red wine; format: in vitro ADME, human; conditions: digested sample, basolateral side of Caco-2 monolayer; for PC Contents, Cabernet, Transmembrane: Cabernet red wine; for PC Contents, Helanshan, Transmembrane: Helanshan red wine; for PC Contents, Tianzhu, Transmembrane: Tianzhu red wine
Protocol: (§1) Caco-2 cells were inoculated following the method of Hubatsch et al. […] Briefly, a 5% v/v of CO2 incubator at 37 °C was used to house the cells. […] Caco-2 cells were sub-cultured when they reached 80-90% of the adherent growth by treating them with a 0.05% v/v of trypsin-EDTA solution. The culture between passages 35 and 40 was used for the following experiment. Transport experiments were performed according to the method of Wu et al. with slight modifications. First, 1.0 × 10^5 Caco-2 cells were inoculated onto 12 mm transparent cell culture plates (Transwell). Media were carefully injected into the apical (0.5 mL) and basolateral (1.5 mL) sides of the Transwell plates. The cell culture medium had to be replaced every other day until the cells formed a monolayer. The integrity and transport ability of the Caco-2 cell monolayer were evaluated by measuring the trans-epithelial electrical resistance (TEER) with a MilliCell voltammeter (Millicell ERS-2, Merck Millipore, Billerica, MA, USA). […] When the cell activity exceeded 0.9, a transport experiment was conducted. The apical side was injected with a digested red wine sample (0.5 mL) and was thoroughly mixed with […] Balanced Salt Solution (HBSS) buffer solution. […] The cells were then cultured in a 37 °C, 5% CO2 incubator. Then, 0.25 mL samples were separately taken from the basolateral side of the monolayer. An equal volume of HBSS buffer was then added every half hour from the beginning of the culture until the end of the culture at 6 h. The collected samples were subsequently filtered and placed in the sample bottle for further HPLC analysis. This experiment was repeated several times to collect enough samples for the next antioxidant test. […] The Agilent 1100 series HPLC instrument was used; it was equipped with a degasser, quaternary pump solvent delivery, a DAD system, and a single quadrupole mass detector coupled with an electrospray ionization LC-MS interface. […] The column temperature was kept at 30 °C, the injection volume was 10 μL, and the flow rate was 0.3 mL/min. The eluents were water and formic acid in a 99:1 (v/v) (A) ratio and 100% acetonitrile (B). The gradient elution procedure was as follows: (1) 3% B solvent at 0 min, (2) 3 to 16% B solvent at 10 min, (3) 16 to 20% B solvent at 30 min, and (4) 20% B solvent maintained until the procedure was completed. The MS configuration was as follows: ESI, negative ion mode, nebulizer pressure of 30 psi, a dry gas flow rate of 10 mL/min, dry gas temperature of 350 °C, and a scan rate of 100~1200 m/z. PCs were determined according to their retention times, UV/VIS spectra, and high-resolution MS spectra, in addition to a comparison with the standards. […] If a standard was unavailable, a structurally related compound was used. Putative annotations were made using spectral features and literature information on the chromatographic properties and mass spectra records from the metabolome database. A standard curve was drawn using methanol solutions with different concentrations as the standards. […] PCs All of the samples were determined in triplicate.

[1] = as above; format: in vitro ADME, human; conditions: human
Protocol: as §1

[2] = PC content of red wine before and after in vitro simulated gastrointestinal digestion (HPLC); format: in vitro ADME; conditions: after simulated gastrointestinal digestion; for PC Contents, Cabernet, After Digestion: Cabernet red wine; for PC Contents, Helanshan, After Digestion: Helanshan red wine; for PC Contents, Tianzhu, After Digestion: Tianzhu red wine
Protocol: The digestion procedure was carried out by adapting the method of Brodkorb et al. and Gómez et al.. […] One milliliter (50 units/mL) of porcine amylase was prepared in a 15 mM Na₃PO₄ buffer solution (pH adjusted to 6.8) containing 1.5 mM CaCl2, and it was added to the red wine solution. After 5 min, 4.5 mL of 0.12 M HCl was added to the mixture to adjust the pH to 2.4. One milliliter of porcine pepsin (0.02 mg/L) was dissolved in a 20 mM HCl solution. The mixture was then maintained at 37 °C for 120 min. The digestion mixture was then centrifuged at 8000× g for 15 min to obtain samples from the gastric digestion phase. […] The mixture was incubated at pH 6.5 at 37 °C for 3 h before being centrifuged. The extracts of the intestinal phase were the supernatants. The same operation was done three times, and each sample was stored in a refrigerator (−20 °C) immediately for further analysis.
The Pati method was adopted, with slight modifications, to measure the content of the PCs. The Agilent 1100 series HPLC instrument was used; it was equipped with a degasser, quaternary pump solvent delivery, a DAD system, and a single quadrupole mass detector coupled with an electrospray ionization LC–MS interface. Briefly, th samples were injected into a Zorbax SB C18 reversed-phase column (5 µm,150 × 2.1 mm, Agilent Technologies, Santa Clara, CA, USA) using an autosampler after filtering through 0.45 µm cellulose acetate syringe filters. The column temperature was kept at 30 °C, the injection volume was 10 µL, and the flow rate was 0.3 mL/min. The eluents were water and formic acid in a 99:1 (v/v) (A) ratio and 100% acetonitrile (B). […] The MS configuration was as follows: ESI, negative ion mode, nebulizer pressure of 30 psi, a dry gas flow rate of 10 mL/min, dry gas temperature of 350 °C, and a scan rate of 100~1200 m/z. PCs were determined according to their retention times, UV/VIS spectra, and high-resolution MS spectra, in addition to a comparison with the standards. […] Putative annotations were made using spectral features and literature information on the chromatographic properties and mass spectra records from the metabolome database. A standard curve was drawn using methanol solutions with different concentrations as the standards. The limits of detection and quantitation were calculated according to the signal-to-noise ratio (limit of detection: signal-to-noise ratio ≥ 3; limit of quantitation: signal-to-noise ratio ≥ 10). […] PCs All of the samples were determined in triplicate.

[3] = Caco-2, apical to basolateral, digested Cabernet red wine, read-out: Apparent Permeability Coefficients, Cabernet
[4] = Caco-2, apical to basolateral, digested Helanshan red wine, read-out: Apparent Permeability Coefficients, Helanshan
[5] = Caco-2, apical to basolateral, digested Tianzhu red wine, read-out: Apparent Permeability Coefficients, Tianzhu

SMILES | PC Contents, Cabernet, Transmembrane (Caco-2 cell monolayer) | PC Contents, Helanshan, Transmembrane (Caco-2 cell monolayer) | PC Contents, Tianzhu, Transmembrane (Caco-2 cell monolayer) | Papp at 6 h [1, 3] [×10⁻⁶ cm/s] | Papp at 6 h [1, 4] [×10⁻⁶ cm/s] | Papp at 6 h [1, 5] [×10⁻⁶ cm/s] | PC Contents, Cabernet, After Digestion [2] | PC Contents, Helanshan, After Digestion [2] | PC Contents, Tianzhu, After Digestion [2] | bioavailability ([1]; Caco-2) [%] | Papp at 6 h ([1]; Caco-2, Apparent Permeability Coefficients, Cabernet) [×10⁻⁶ cm/s] | Papp at 6 h ([1]; Caco-2, Apparent Permeability Coefficients, Helanshan) [×10⁻⁶ cm/s] | Papp at 6 h ([1]; Caco-2, Apparent Permeability Coefficients, Tianzhu) [×10⁻⁶ cm/s]
C[C@@H]1O[C@@H](O[C@H]2C(=O)c3c(O)cc(O)cc3O[C@@H]2c2ccc(O)c(O)c2)[C@H](O)[C@H](O)[C@H]1O [Astilbin] | 1.11 ± 0.05 ^a mg/L | 0.93 ± 0.04 ^a mg/L | 5.05 ± 0.19 ^a mg/L | 2.46 ± 0.23 | 2.37 ± 0.34 | 2.41 ± 0.26 | 28.22 ± 1.07 ^b mg/L | 24.63 ± 1.13 ^b mg/L | 25.36 ± 1.32 ^b mg/L |  |  |  | 
O=C(/C=C/c1ccc(O)c(O)c1)O[C@@H](C(=O)O)[C@@H](O)C(=O)O [Caftaric acid] | 0.43 ± 0.01 ^a mg/L | 0.49 ± 0.02 ^a mg/L | 1.07 ± 0.03 ^a mg/L | 8.93 ± 1.02 | 8.77 ± 1.28 | 8.45 ± 1.31 | 3.01 ± 0.17 ^b mg/L |  | 5.35 ± 0.23 ^b mg/L |  |  |  | 
Oc1cc(O)c2c(c1)O[C@H](c1ccc(O)c(O)c1)[C@H](O)C2 [Epicatechin] |  |  |  | 11.4 ± 1.77 | 11.5 ± 1.53 | 11.4 ± 1.46 |  |  |  |  |  |  | 
CCOC(=O)c1cc(O)c(O)c(O)c1 [Ethyl gallate] | 10.70 ± 0.33 ^a mg/L | 8.64 ± 0.36 ^a mg/L | 8.13 ± 0.28 ^a mg/L | 17.4 ± 2.73 | 17.9 ± 2.88 | 18.3 ± 3.02 | 38.42 ± 1.88 ^b mg/L | 30.18 ± 0.94 ^b mg/L | 40.83 ± 1.51 ^b mg/L |  |  |  | 
O=C(O)c1cc(O)c(O)c(O)c1 [Gallic acid] | 4.61 ± 0.23 ^a mg/L | 2.53 ± 0.14 ^a mg/L | 1.38 ± 0.05 ^a mg/L |  |  |  | 9.08 ± 0.44 ^b mg/L |  | 6.91 ± 0.26 ^b mg/L | 24 | 31.7 ± 3.82 | 30.9 ± 3.99 | 32.8 ± 4.13
